Results reported in ChEMBL document CHEMBL1133273, “Synthesis and evaluation of quinoline carboxyguanidines as antidiabetic agents” (2000).

What was measured:
Type in all cases: functional
Rattus norvegicus [1] = test: Percent glycaemia evolution at 200 mg/kg at 2 hr after a sharp administration (J1) in Wistar rats
Rattus norvegicus [2] = test: Percent glycaemia evolution at 200 mg/kg at 2 hr after the last administration for 4 days chronic treatment (J4) in Wistar rats
Rattus norvegicus [3] = test: Percent glycaemia evolution at 20 mg/kg at 2 hr after a sharp administration (J1) in Wistar rats
Rattus norvegicus [4] = test: Percent glycaemia evolution at 20 mg/kg at 2 hr after the last administration for 4 days chronic treatment (J4) in Wistar rats
Rattus norvegicus [5] = test: Number of deaths at 200 mg/kg at 2 hr after the last administration for 4 days chronic treatment (J4) in Wistar rats; 4 death/5
Rattus norvegicus [6] = test: Number of deaths at 20 mg/kg at 2 hr after the last administration for 4 days chronic treatment (J4) in Wistar rats; 1 death/5

Compound	Glycaemia evolution (Rattus norvegicus [1])	Glycaemia evolution (Rattus norvegicus [2])	Glycaemia evolution (Rattus norvegicus [3])	Glycaemia evolution (Rattus norvegicus [4])	No. of deaths (Rattus norvegicus [5])	No. of deaths (Rattus norvegicus [6])
CCOc1cc(C(=O)NN=C(N)N)nc2ccc(F)cc12.Cl	-4%	-14%	6%	-3%	–	–
Cl.N=C(N)NC(=O)c1cc(O)c2cc(F)ccc2n1	-7%	-14%	-5%	-15%	–	–
NC(=O)NNC(=O)c1cc(O)c2cc(F)ccc2n1	-7%	-14%	-6%	-16%	–	–
CCN1CC(C(=O)N/N=C(\N)N=C(N)N)C(=O)c2cc(OC)ccc21.Cl (stereo not given)	2%	-5%	-3%	-2%	–	–
CCn1cc(C(=O)N=C(N)N)c(=O)c2cc(OC)ccc21.Cl	0%	-9%	0%	0%	–	–
CCOc1cc(C(=O)N=C(N)N)nc2cc3c(cc12)OCO3.Cl	-4%	-7%	1%	-6%	–	–
CCOc1cc(C(=O)N=C(N)N)nc2ccc(F)cc12.Cl	-5%	-30%	-8%	-10%	–	–
Cl.N=C(N)NC(=O)c1cc(Cl)c2cc(F)ccc2n1	58%	–	19%	–	4	1
CCn1cc(C(=O)N=C(N)N)c(=O)c2ccc(C)nc21.Cl	-4%	-21%	1%	-11%	–	–
COc1ccc2ncc(C(=O)N=C(N)N)c(O)c2c1.Cl	-8%	3%	5%	3%	–	–
CCOc1cc(C(=O)Nc2nn[nH]n2)nc2ccc(F)cc12	9%	-6%	8%	4%	–	–
CCOc1cc(C(=O)N=C(N)N)nc2cc(OC)ccc12	6%	2%	2%	-2%	–	–
CCOc1cc(C(=O)NNC(N)=O)nc2ccc(F)cc12	8%	-3%	3%	-8%	–	–
CCn1cc(C(=O)NN=C(N)N)c(=O)c2cc(OC)ccc21.Cl	6%	-6%	-10%	-12%	–	–
Cl.N=C(N)NNC(=O)c1cc(O)c2cc(F)ccc2n1	8%	-2%	8%	4%	–	–
